Reference: patent US8158811B2, “Unsaturated fatty hydroxy acid derivatives and the dermocosmetologic use thereof” (Pierre Fabre Dermo-Cosmetique, priority 2005, dated 2012)

Tests used:
[1] = tested on: membrane lipids, fibroblast line L929; assay: TBARS test, lipid peroxidation after H2O2/Fe2+/Fe3+; assay type: cell-based, murin; settings: 0.02 ng/ml, pretreated 16 hours
Text: In order to evaluate membrane changes, we measured lipid peroxidation by in vitro assay of complexes between the products of lipid oxidation and thiobarbituric acid. These complexes are called TBARS (thiobarbituric acid reactive substances) and give the test its name: TBARS Test.
In order to mimic chemical oxidative stress, we treated a fibroblast line (L929) with a complex consisting of hydrogen peroxide (H2O2) and iron (Fe^2+/Fe^3+) thus reconstituting the Fenton reaction which is the source of oxygenated free radicals and particularly the hydroxyl radical (OH°) (D. A Vessey et al. 1992): H2O2+Fe^2+→OH°+OH^−+Fe^3+
The products were evaluated on a murin fibroblast line L929. Cells were pretreated with different concentrations of the product for 16 hours and were then stimulated with the H2O2/Fe^2+/Fe^3+ complex (200 μM−1 mM) for 1 hour. • Stock solutions: 100 mg/ml ethanol, 4° C. • Final solutions: 0.02 ng/ml.
Peroxidation of membrane lipids was analysed by measuring TBARS (Protocol ref. PLN°2, according to Morliere et al, 1991).
[…]. TBARS assays are therefore expressed in pmole/μg of protein. Proteins and TBARS are assayed in the intracellular medium.
Using the TBARS calculation in pmole/μg protein, we calculated the protective efficacy of various products against the oxidation of lipid membranes.
Four separate experiments were carried out. Several compounds were evaluated in the course of these experiments (the test only allows 10 molecules to be evaluated at one time). The compounds were evaluated several times and were chosen as a function of the results obtained in another test which also measured anti-radical activity (assay test for activated oxygen species).
The model used in this experiment (Fenton reaction) triggers considerable lipid peroxidation of the L929 fibroblasts. This massive release of the hydroxyl radical OH° thus generates oxidative stress in the cells, particularly in the membranes. However, in this type of oxidative reaction, the products resulting from lipid peroxidation are internalized in the cells and TBARS are therefore assayed in the intracellular medium.

transglutaminase 1 (TG1) = assay: keratinocyte differentiation, real-time RT-PCR of transglutaminase 1 transcripts; assay type: cell-based, human; settings: NHK, 48 hours
Experimental: (§1) Normal human keratinocytes (NHK) proliferate and differentiate in vitro, forming stratified layers which mimic the basal organisation of the skin. Extracellular calcium concentrations in excess of 0.1 mM initiate a cascade of genome and non-genome events which take the keratinocytes from a proliferative phase towards a differentiation phase. Keratinocyte differentiation can then be evaluated by studying the expression of several markers such as keratins 1 and 10, transglutaminase 1, desaturase DES2, involucrine, FATP4 and ABCG1 transporters. We therefore evaluated the effect of certain hydroxyalcene carboxylic acids in an in vitro culture model.
(§2) Normal human keratinocytes are isolated from skin explants. They are cultured in KSFM medium (Gibco) with a low calcium content (0.1 mM) containing 25 μg/ml of BPE (bovine pituitary extract) and […] of EGF (epithelium growth factor). 24 hours after culturing, differentiation is triggered by the addition of calcium (final concentration 1.2 mM). The active ingredients are added or not at the same time as calcium at concentrations of 100 and 1 μg/ml in order to determine whether or not they have a potentialising effect on differentiation. Cells were then analysed 48 hours after the addition of calcium and these products.
(§3) Total RNA was extracted under cold conditions from keratinocytes.
(§4) After reverse transcription of mRNA into cDNA, PCRs were made up in 96 well plates (iCycler quantitative PCR apparatus, BioRad). Expression of transcripts of transglutaminase, desaturase (DES2), ABCG1 and FATP4 were standardized with respect to the expression of reference genes (GAPDH, UBC, HPRT).

desaturase DES2 = assay: keratinocyte differentiation, real-time RT-PCR of DES2 transcripts; assay type: cell-based, human; settings: NHK, 48 hours
Experimental: as §1, §2, §3, §4

ABCG1 = assay: keratinocyte differentiation, real-time RT-PCR of ABCG1 transcripts; assay type: cell-based, human; settings: NHK, 48 hours
Experimental: as §1, §2, §3, §4

FATP4 = assay: keratinocyte differentiation, real-time RT-PCR of FATP4 transcripts; assay type: cell-based, human; settings: NHK, 48 hours
Experimental: as §1, §2, §3, §4

PAR-2 receptors = target: T1, PAR-2 receptors (Homo sapiens, UniProt P55085); assay: calcium flux induced by trypsin stimulation of PAR-2 receptors in HaCaT keratinocytes (Fluo-4/AM); assay type: cell-based; settings: trypsin 10 nM
T1 construct: PAR-2 receptors for trypsin present in human keratinocytes from the HaCaT line; endogenous in cells; host or cells: HaCaT human keratinocytes
T1 sequence (P55085 26-397): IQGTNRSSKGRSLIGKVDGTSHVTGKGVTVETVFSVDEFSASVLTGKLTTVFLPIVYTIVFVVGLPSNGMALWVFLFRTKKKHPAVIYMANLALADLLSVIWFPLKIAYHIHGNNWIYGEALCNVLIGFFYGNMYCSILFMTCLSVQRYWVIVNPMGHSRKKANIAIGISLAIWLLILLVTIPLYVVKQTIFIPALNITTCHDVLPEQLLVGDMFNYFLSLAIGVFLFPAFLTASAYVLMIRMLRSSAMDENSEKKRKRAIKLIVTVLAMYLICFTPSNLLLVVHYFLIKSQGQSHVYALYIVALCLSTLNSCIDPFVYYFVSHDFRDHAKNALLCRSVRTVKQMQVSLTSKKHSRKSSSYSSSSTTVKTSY
Text: We therefore considered evaluating anti-PAR-2 activity of hydroxyl acid derivatives of formula I on the influx of intracellular calcium induced after specific stimulation by PAR-2 receptors for trypsin present in human keratinocytes from the HaCaT line.
This technique is based on the use of an esterified fluorescent probe by an AM group which facilitates its penetration by passive diffusion into the cell. The probe used is Fluo-4/AM. Only the de-esterified form bound to the calcium ion is excitable in fluorescence (at 485 nm) and emits at 535 nm.
In vitro, at the cell level, specific stimulation of the PAR-2 receptors by trypsin leads to mobilisation of intra and extracellular calcium detected with the aid of the fluorescent probe.

[2] = tested on: murine melanome cell line B16-F10; assay: melanin synthesis, colorimetric assay, basal and after α-MSH; assay type: cell-based; settings: basal situation, 30 μg/ml
Experimental: The modulating effect of unsaturated fatty hydroxy acid derivatives on melanogenesis was analysed. To do this, measurement of melanin synthesis by colorimetric assay was performed on a murine melanome cell line: line B16-F10.
The effect of products was investigated in a basal situation and after stimulation by α-MSH in order to determine depigmenting capacity.
Levels of extracellular and intracellular melanin were measured by spectrophotometry at a wavelength of 405 nm according to the protocol described by Anob et al., 1999. The amount of pigment was determined using a standard melanin range and analysis on Microwin software (Berthold Biotechnologies). A total protein assay was carried out for intracellular melanin samples by means of the BCA-Copper method at 540 nm. The standard range was made up using standard protein BSA (Bovine Serum Albumin).

Interleukin 8 = assay: release of Interleukin 8 by keratinocytes NHK stimulated with PMA + calcium ionophore A23187 (ELISA); assay type: cell-based, human; settings: IL8 release

Compound | % membrane lipid protection, Mean [1] | Induction Factor vs Control (CaCl2 1.2 mM) TG1 (transglutaminase 1 (TG1); 1 μg/ml) | Induction Factor vs Control (CaCl2 1.2 mM) TG1 (transglutaminase 1 (TG1); 100 μg/ml) | Induction Factor vs Control (CaCl2 1.2 mM) DES2 (desaturase DES2; 1 μg/ml) | Induction Factor vs Control (CaCl2 1.2 mM) DES2 (desaturase DES2; 100 μg/ml) | Induction Factor vs Control (CaCl2 1.2 mM) ABCG1 (ABCG1; 1 μg/ml) | Induction Factor vs Control (CaCl2 1.2 mM) ABCG1 (ABCG1; 100 μg/ml) | Induction Factor vs Control (CaCl2 1.2 mM) FATP4 (FATP4; 1 μg/ml) | Induction Factor vs Control (CaCl2 1.2 mM) FATP4 (FATP4; 100 μg/ml) | other results
O=C(O)C(F)=CCCCCCO (mixture of isomers) [n=4, R=H, Rn=H, R1=F] | 36.54% | 1.6 | 1.7 | 2.2 | 3.2 | 2.6 | 2.6 | 1.3 | 1.4 | 
O=C(O)C=CCCCCO [n=3, R=H, Rn=H, R1=H] | 15.7% | 1.2 | 2.6 | 1.6 | 2.4 | 1.5 | 4.0 | 1.4 | 1.2 | 
O=C(O)C=CCCCCCO [n=4, R=H, Rn=H, R1=H] | 37.88% | 1.2 | 1.7 | 1.0 | 2.2 | 1.2 | 2.5 | 1.0 | 1.4 | 
O=C(O)/C=C/CCCCCCCCCCO [n=9, R=H, Rn=H, R1=H, 13-hydroxy-tridec-2t-enoic acid] | 8.72% | 1.4 | 14.8 | 1.8 | 51.7 | 1.5 | 13.8 | 1.2 | 4.5 | 
O=C(O)C(F)=CCCCCCCCCCCCO [n=10, R=H, Rn=H, R1=F, 14-hydroxy-tetradec-2-fluoro-2-enoic acid] | 13.13% | 1.4 | 3.5 | 1.6 | 16.0 | 1.4 | 4.6 | 1.0 | 2.3 | 
O=C(O)/C=C/CCCCCCCCCCCO [n=10, R=H, Rn=H, R1=H, 14-hydroxy-tetradec-2t-enoic acid] | 27.18% | 1.5 | 31.4 | 2.0 | 125.8 | 1.4 | 25.5 | 1.2 | 5.9 | % inhibition (PAR-2 receptors; 10 μg/ml): −17%; % stimulation (PAR-2 receptors; 10 μg/ml): 15.33%; % inhibition (PAR-2 receptors; 30 μg/ml): −4%; % stimulation (PAR-2 receptors; 30 μg/ml): 14.10%; % inhibition (PAR-2 receptors; 100 μg/ml): 39%; % stimulation (PAR-2 receptors; 100 μg/ml): 9.84%; inhibition of melanin synthesis [2]: 15%
O=C(O)C(F)=CCCCCCCCCCCCCCCO [n=13, R=H, Rn=H, R1=F, 17-hydroxy-heptadec-2-fluoro-2-enoic acid] | 7.39% | 4.2 |  | 9.0 |  | 4.8 |  | 2.2 |  | % inhibition (PAR-2 receptors; 0.1 μg/ml): −1%; % stimulation (PAR-2 receptors; 0.1 μg/ml): 13.78%; % inhibition (PAR-2 receptors; 0.3 μg/ml): 6%; % stimulation (PAR-2 receptors; 0.3 μg/ml): 13.06%; % inhibition (PAR-2 receptors; 1 μg/ml): 9%; % stimulation (PAR-2 receptors; 1 μg/ml): 12.74%; % inhibition (PAR-2 receptors; 3 μg/ml): 7%; % stimulation (PAR-2 receptors; 3 μg/ml): 12.97%; % inhibition (PAR-2 receptors; 10 μg/ml): 42%; % stimulation (PAR-2 receptors; 10 μg/ml): 9.55%; ED50 (Interleukin 8): <3 µg/mL
O=C(O)/C=C/CCCCCCCCCCCCCCO [n=13, R=H, Rn=H, R1=H, 17-hydroxy-heptadec-2t-enoic acid] | 22.10% | 1.4 |  | 3.0 |  | 3.0 |  | 1.4 |  | ED50 (Interleukin 8): <3 µg/mL
